Data on 91 molecules can be found in a melting point compilation (Tetko et al.; mined from patent text by program, amines drawn as free bases though some values may be those of a salt).

Molecule `CCCCN1C=CC(N2CCC(F)(c3ccccc3)C(Cl)C2=O)=CC1` (stereo unspecified) showed a melting point of 137 °C.

Molecule `COC(=O)c1sc(C#N)cc1[N+](=O)[O-]` came in with a melting point of 83 to 85 °C.

`CC(C)(C)C(=O)Nc1ccc(F)cc1C1(O)CCN(C/C=C/c2ccc(Cl)cc2)CC1`: the melting point fell in the range of 172 to 173 °C.

As for `Oc1cccc(-c2nc3cccc(CBr)c3o2)c1`, the melting point lay in the range of 225 to 228 °C.

`Oc1c(F)ccc(-c2c3ccccc3c(Br)c3sc4ccccc4c23)c1F` returned a melting point of 180 to 182 °C.

`O=C1CC(c2ccco2)Cc2occ(C(F)(F)F)c21` (stereo unspecified) had a melting point of 94 to 95 °C.

With `C=CCCC(C#N)(C#N)Cc1ccc(Cl)cc1`, the melting point worked out at 63.7 °C.

The molecule `Cc1cc(=O)on1C(=O)c1ccc(Cl)cc1Cl` displayed a melting point of 137 to 139 °C.

In turn, `CC(=O)c1c(-c2ccc(F)cc2)ncn1C1CC(C)(C)NC(C)(C)C1` displayed a melting point of 134 to 136 °C.

`CCCc1c(OCCCCCCCCCCC(=O)O)ccc(C(C)=O)c1O` registered a melting point of 57 to 58 °C.

As to `C=CCn1c(=O)c(C(=O)OCC)c(N)c2cccnc21`, the melting point fell in the range of 161 to 164 °C.

In turn, `O=C1NC(c2ccccc2)Oc2ccccc21` (stereo unspecified) showed a melting point of 157 to 160 °C.

Molecule `N[C@@H](CC(C(=O)O)=C1CCCC1)C(=O)O` registered a melting point of 205 °C.

On to `CN(C)CCSc1cc(NC(=O)OC(C)(C)C)c([N+](=O)[O-])cc1I`, for which the melting point was found to be 144 °C.

As for `CCC(=O)Nc1ccc(-c2ccnc3c(C(=O)c4ccco4)cnn23)cc1`, the melting point lay within 235 to 237 °C.

The molecule `Cc1c(CCC#N)c2c(c(C(C)C)c1OCc1ccccc1)CC(C)(C)O2` yielded a melting point of 158 to 159 °C.

The molecule `Cc1nc(C(=O)N(C)C)c2n1-c1ccc(Cl)cc1C(c1ccccc1F)=NC2` returned a melting point of 158 to 160 °C.

`Cn1cc(OS(C)(=O)=O)c(=O)c2ccc(C(F)(F)F)cc21` came in with a melting point of 218 °C.

For the molecule `Cc1cc(Cl)cc(C(=O)CC(=O)C2CCCCC2)c1O`, the melting point fell in the range of 76 to 77 °C.

Take `COC=C(C#N)Cc1ccc(OC)c(OC)c1`: the melting point was in the range of 64 to 65 °C.

In turn, `Cn1nnc(-c2cc(-c3ccc(F)cc3)sc2-c2ccc(F)cc2)n1` gave a melting point of 150 to 152 °C.

With `CCOC(=O)/C=C/c1ccc(Cl)c(Cl)n1`, the melting point lay within 102 to 103 °C.

With `Fc1ccc(NC(=S)c2ccccn2)cc1Cn1ccnc1`, the melting point was 154 to 156 °C.

`COCCNC(=O)CC1CN=C(c2cc3cc(Oc4ccc(S(C)(=O)=O)nc4)ccc3[nH]2)S1` (stereo unspecified) gave a melting point of 155 to 156 °C.

`O=S(=O)(c1ccc(F)cc1)N1CCCC1c1cccs1` (racemic): the melting point is 97 °C.

In turn, `O=C1CCC(c2ccc(OCC3CO3)c3ccccc23)=NN1` (stereo unspecified) displayed a melting point of 151 to 155 °C.

Molecule `CCc1c2c(nn1CC)c(N)nc1ccccc12` gave a melting point of 234 to 236 °C.

`CCCC(CCC)(CCC)NC(=O)N(C)C`: the melting point was 88 °C.

`CCC(=O)Nc1ccccc1C(=O)O` showed a melting point of 120 °C.

`COc1cccc(NC(=O)Nc2nc3nc(NCCCN4CCN(C)CC4)ncc3cc2-c2c(Cl)cccc2Cl)c1` had a melting point of 87.5 to 92.5 °C.

`CCc1c(N)cccc1NC(=O)OC(C)(C)C` yielded a melting point of 109 to 110 °C.

In the case of `COc1cc(N)c(Cl)cc1C(=O)NCC1CCN(CCCCCC(=O)c2ccc(C)cc2C)CC1`, the melting point lay in the range of 106 to 110 °C.

The molecule `O=C(O)c1ccc(OCCCCCCc2ccc3cc(O)c(O)cc3c2)cc1O` showed a melting point of 190 to 192 °C.

Turning to `CCOC(=O)C1=C(C)NC(c2nccn2Cc2ccccc2)=NC1c1ccc(F)cc1` (stereo unspecified), the melting point fell in the range of 162 to 164 °C.

`CCOc1cccc(SCC(=O)O)c1CC(=O)O` registered a melting point of 147 to 150 °C.

The molecule `CCOC(=O)C1=Cc2cccc(C(F)(F)F)c2OCC1` gave a melting point of 57 to 59 °C.

`O=C1C(O)=C(c2ccc(Cl)cc2)C(=O)C(O)=C1/C=C/c1ccccc1` returned a melting point of 258 to 259 °C.

For `CC(=CC(=O)c1ccc(C(F)(F)F)cc1[N+](=O)[O-])N(C)C`, the melting point is 122 °C.

Consider `CSc1nc(C)c(CCO)c(=O)n1C`, for which the melting point fell in the range of 117 to 118 °C.

Turning to `O=C(OCCOC(c1ccccc1)(c1ccccc1)c1ccccc1)Oc1ccc([N+](=O)[O-])cc1`, the melting point is 136 to 141 °C.

Take `FC(F)(F)c1cccc(N=c2ccn3ccccc3c2)c1`: the melting point fell in the range of 134 to 135 °C.

Regarding `CCOC(=O)c1c2ccc(CC(=O)NOCCCN(CC)CC)ccc-2c(C(=O)OCC)c1N`, the melting point lay in the range of 125 to 127 °C.

`Cc1cccc(C2(CCC(=O)O)NC(=O)NC2=O)c1` (stereo unspecified) came in with a melting point of 173 to 178 °C.

`Cc1nc(N)c2ncn(CCOc3ccccc3)c2c1C`: the melting point lay within 197 to 199 °C.

The molecule `O=C(Nc1ccc(-n2nc(C(F)(F)F)cc2C(F)(F)F)cc1)C1CC1` displayed a melting point of 204 to 205 °C.

Molecule `Cc1ccc(C(Cl)=NNc2ccccc2)cc1` came in with a melting point of 133 to 134 °C.

The molecule `NS(=O)(=O)c1ccc(-c2noc(-c3cnn4c(C(F)(F)F)cc(-c5ccc(C(F)(F)F)cc5)nc34)n2)cc1` gave a melting point of 275 °C.

Take `CN(C)C=NS(=O)(=O)c1cc(C(=O)c2cc3c(c(Cl)c2Cl)OC(CO)C3)ccc1Cl` (stereo unspecified): the melting point fell in the range of 180 to 182 °C.

Regarding `O=S1(=O)NCN(C2CC2)c2cc(F)c(Cl)cc21`, the melting point lay within 155 to 158 °C.

`O=C1c2cccc(O)c2CCC1CN1CCC(O)(c2ccccc2)CC1` (stereo unspecified) registered a melting point of 187 to 189 °C.

As to `Cc1ccc2c(c1)C(C(=O)Nc1c(C)cccc1C)c1ccccc1CO2` (stereo unspecified), the melting point fell in the range of 162 to 163 °C.

Regarding `N#Cc1cnc(N)nc1-c1ccc(Cl)cc1C1(c2ccccc2F)OCC(CCl)O1` (stereo unspecified), the melting point lay in the range of 184 to 191 °C.

In turn, `CC1=C(C(=O)OC(CN2CCCCC2)c2ccccc2)C(c2cccc([N+](=O)[O-])c2)n2nccc2N1` (stereo unspecified) returned a melting point of 92 to 93 °C.

In the case of `O=C(CCC(Cl)(Cl)Cl)Nc1cccc(-c2ccnc3c(C(=O)c4cccs4)cnn23)c1`, the melting point lay within 189 to 191 °C.

Molecule `CN1CCC2c3[nH]c4ccccc4c3CCN2C1` (stereo unspecified) came in with a melting point of 168 °C.

`COc1cc(OC(C)(C)C(=O)O)c(/C=C/C(=O)c2ccc(S(N)(=O)=O)cc2)cc1-c1cccs1` yielded a melting point of 164 to 165 °C.

`N#CC(=NOS(=O)(=O)c1ccc(C(=O)O)cc1)c1ccccc1` came in with a melting point of 250 to 251 °C.

As to `CCCCc1ccc(-c2[nH]c(=O)n(C3CCCCC3)c2C)cc1`, the melting point worked out at 236 °C.

The molecule `Cc1nnc2c(Cl)nc3ccc(Cl)cc3n12` had a melting point of more than 280 °C.

Regarding `CCOC(=O)C1(F)C(=O)NC(=O)NC1ON=C1CCC1` (stereo unspecified), the melting point lay in the range of 188 to 189 °C.

Take `Nc1c(Nc2cccc3cnccc23)c(=O)c1=O`: the melting point was found to be 215 °C.

`CCn1c(Oc2cccc(NC(=O)N(C)C)c2)nnc1[C@@H](C)NS(=O)(=O)c1ccc(Cl)c(Cl)c1` yielded a melting point of 158 to 159 °C.

For the molecule `O=C(O)C1CC(F)(F)CC1C(=O)O` (stereo unspecified), the melting point was found to be 128 °C.

The molecule `O=C1NCC(Cc2ccc(F)cc2)O1` (stereo unspecified) displayed a melting point of 120 to 121 °C.

Regarding `O=C(NCCCCl)Nc1c(Cl)cccc1C(=O)O`, the melting point lay within 124 to 125 °C.

As to `CCC(CC)(CC(=O)Nc1cccc(OCc2ccc3ccc(Br)cc3n2)c1)C(=O)O`, the melting point was 175 °C.

As for `N#Cc1cccnc1N1CCN(CC(=O)Nc2ccc(F)c(C(F)(F)F)c2)CC1`, the melting point lay in the range of 120 to 122 °C.

In the case of `Cc1ccc(S(=O)(=O)NC[C@H](F)Cc2ccccc2)cc1`, the melting point was 130 to 133 °C.

In the case of `CC(C)(C)OC(=O)n1ccc2cc(-c3ccccc3)ccc21`, the melting point is 105 to 106 °C.

Consider `CC(C)CC=CC(C)C1CCC2C3=CC=C4CC(O)CCC4(C)C3CCC21C` (stereo unspecified), for which the melting point fell in the range of 120 to 122 °C.

For the molecule `CCc1nc2c(N)nc3cccnc3c2n1CC1(O)CCOCC1`, the melting point was more than 250 °C.

As for `COc1cc(C)ccc1S(=O)(=O)NC(=O)C(c1cc(OC)c2c(c1)OCO2)c1cn(C)c2cc(CO)ccc12` (stereo unspecified), the melting point lay in the range of 145 to 147 °C.

Molecule `O=C(OCC(OC(=O)c1ccccc1)c1nc2c(C(F)(F)F)cccc2c(O)c1C(=O)Nc1nccs1)c1ccccc1` (stereo unspecified) returned a melting point of 240 °C.

`CCn1cc(C(=O)O)c(=O)c2cc(F)c(-c3cc(C)nc(C)c3)cc21` yielded a melting point of more than 310 °C.

Consider `CCCCCC(=O)Nc1nnc(C)s1`, for which the melting point amounted to 203 °C.

For `CNC(=S)N(C)c1cncc(C(F)(F)F)c1`, the melting point was 86 to 90 °C.

Consider `Cc1ccc(S(=O)(=O)OCC2Cc3cc(Cl)cc(OS(=O)(=O)C(F)(F)F)c3O2)cc1` (stereo unspecified), for which the melting point is 55 to 57 °C.

In the case of `COc1ccc2c(Cl)nc(C(=O)NCCO)c(O)c2c1`, the melting point was 117 to 119 °C.

In turn, `CCCCSc1cc(C(=O)O)cc([N+](=O)[O-])c1-c1ccccc1` registered a melting point of 147 to 148 °C.

`COc1cc(C(=O)O)cc2c1C(=O)c1c(OC)ccc(OC)c1C2=O` showed a melting point of 260 to 262 °C.

In the case of `O=Cc1c(Cl)nc(-c2ccccc2)n1Cc1ccc([N+](=O)[O-])cc1`, the melting point was 150 to 152 °C.

`CCOC(=O)c1[nH]cc2c1NC1=C(C(=O)CCC1)C2c1ccc(Sc2nc3cc(F)c(F)cc3[nH]2)o1` (stereo unspecified) registered a melting point of 160 to 170 °C.

For `Nc1ccc(-c2nnsc2-c2ccc(N)cc2)cc1`, the melting point came to 236 °C.

With `Cc1ccnc(CSc2nc3ccccc3c(=O)n2-c2ccccc2)c1`, the melting point was in the range of 145 to 150 °C.

Consider `CCOc1sc(C(N)=O)c2c1-c1c(cnn1C)CC2`, for which the melting point lay in the range of 200 to 202 °C.

`CC(C)(C)c1cc(C(=O)c2cccs2)cc(CN2CCCCC2)c1O`: the melting point lay within 132 to 133 °C.

`Cc1ccc(Br)c2occc12` yielded a melting point of 32 to 33 °C.

In turn, `Cn1c(=O)[nH]c2nc3ccc(OCCCC(=O)NC4CCCCC4)cc3cc21` yielded a melting point of 282 to 284 °C.

Molecule `CC(C)(C)OC(=O)CC(=O)c1ccc(C#N)cc1` registered a melting point of 82 to 83 °C.

For `Oc1ccc(Nc2nc(NCc3ccco3)nc(Nc3cccc(Oc4ccccc4)c3)n2)cc1`, the melting point is 80 to 83 °C.

In turn, `O=c1oc(-c2ccccc2)nc2cccc(F)c12` returned a melting point of 162 to 164 °C.
